According to patent publication US20200199174A1, “NOVEL FLUORESCENT LABELING METHOD” (priority 2017, published 2020):

Columns and labels:
5D4 = experiment: Fluorescence change characteristics of fluorophore-DNP pair in presence and absence of 5D4; format: biochemical, mouse
Description: The anti-DNP scFv was expressed and purified as a fusion protein of maltose-binding protein. Escherichia coli BL21 (DE3) was transformed with the pMalc5E vector (pMalc5E-scFv) into which the purification object scFv sequence was introduced, and was cultured overnight on an LB medium plate including 100 μg/mL of ampicillin. A single colony was picked up and cultured overnight in 5 mL of a liquid LB medium including 100 μg/mL of ampicillin, and 1 mL of the resultant culture liquid was transferred to 100 mL of LB medium including 100 μg/mL of ampicillin. Shake culturing was performed at 200 rpm and a temperature of 37° C. until an optical density at 600 nm of 0.8 was reached, and after shake culturing was performed for 30 minutes at 15° C., IPTG was added to give a final concentration of 0.5 mM, and shake culturing was continued overnight. The E. coli were recovered after culturing and were disrupted using a sonicator. […] An eluate was replaced with PBS, and yield was quantified by the Bradford method, after which the eluate was subjected to the measurements described below.
RNA was extracted from the hybridomas of the resultant four clones, and cDNA fragments of the variable regions of the light chains and heavy chains of monoclonal antibodies were obtained by reverse transcription. The cDNA fragments of the variable regions of the light chains and heavy chains were connected via a linker sequence by overlap PCR, and scFv constructs were constructed only from subclones (4E10 and 5D4) derived from wells 1E10 and 3B12, respectively. […] The nucleic acid sequence of the cDNA sequence coding for 5D4 was identified by sequencing (SEQ ID NO: 8), an amino acid sequence determined from the result thereof was analyzed using the IMGT database (http://www.imgt.org/), and a […] region was specified (FIG. 4).
This fluorescence characteristic is similar to that of Cy5 dye, which is widely used in fluorescence imaging in cells. In the presence of 5D4, the fluorescence intensity of 6SiR-DNP was increased by a factor of 98 relative to the fluorescence intensity thereof in the absence of 5D4 (FIG. 6B). When fluorescence quantum yield of 6SiR-DNP in a state in which 6SiR-DNP is bound to 5D4 was measured, the fluorescence quantum yield in the presence of an excess of 5D4 was 0.57. This value for the fluorescence quantum yield is large, and is equal to or greater than that of Cy5 (quantum yield=0.2-0.4) and Cy5.5 (quantum yield=0.24), which are also highly versatile fluorescent dyes in cell labeling experiments (Q. Zheng et al., Ultra-stable organic fluorophores for single-molecule research. Chem Soc Rev 43, 1044-1056 (2014).).

[1] = tested on: 5D4 fusion proteins in HeLa cells; experiment: Fluorescent labeling of 5D4 fusion proteins expressed in HeLa cells (live cell imaging); format: cell-based
Description: HEK293T cells and HeLa cells were cultured in Dulbecco's Modified Eagle's Medium (DMEM, Wako) including 10% fetal bovine serum (FBS, SIGMA) at a carbon dioxide concentration of 5% and a temperature of 37° C.
Gene transfer into HeLa cells was performed using lipofection. For the HeLa cells under culture in a 24-well dish, 25 μL of Opti-MEM I (GIBCO) to which 0.5 μg of a plasmid had been added was added to a mixed solution of 2 μL of Lipofectamine 2000 (Invitrogen) and 25 μL of Opti-MEM I and incubated for five minutes at room temperature. This mixture was added to 500 μL of a medium 90-100% confluent with HEK293T cells and HeLa cells, and culturing was performed at 37° C. at a carbon dioxide concentration of 5%. Cell concentration was diluted to 1/10 5 to 8 hours after transfection, and cells were re-seeded on a glass dish. Cells were subjected to various imaging experiments after 24 hours had passed since transfection.
Cells were observed using an inverted microscope (IX-71, Olympus) provided with a xenon arc lamp. Images were captured using an EM-CCD camera (iXon EM+, Andor). During acquisition of a 6SiR-DNP fluorescence image, a Cy5-4040C filter set (Semrock) comprising a 608-648 nm excitation light filter, a 660 nm dichroic mirror, and a 672-712 nm absorption filter was used.
During acquisition of a CFP fluorescence image, a U-MCFPHQ filter set (Olympus) comprising a 424-438 nm excitation light filter, a 450 nm dichroic mirror, and a 460-510 nm absorption filter was used. An objective lens (10×NA 0.3, 20×NA 0.75: Olympus) was used for the screening in FIG. 3, and an oil immersion objective lens (100× NA 1.4: Olympus) was used in the observations in FIGS. 5, 8, 9, and 10.
The HeLa cell medium was drawn up and washed with HBS buffer solution (25 mM HEPES, 125 mM NaCl, 2.5 mM KCl, 2 mM CaCl2, 1 mM MgCl2, and 25 mM D-glucose; pH 7.4), and cells were then observed in the HBS buffer solution including 6SiR-DNP at a concentration of 100 nM or 10 nM. Image capture was started 5 minutes after the 6SiR-DNP was added. Images were analyzed using ImageJ (NIH).
5D4 expressed at an arbitrary site in a cell was labeled with 6SiR-DNP, and the ability to observe a fluorescence image using a fluorescence microscope was investigated. When cells expressing only ECFP were loaded with 6SiR-DNP (FIG. 8A), and when ECFP to which 5D4 was added was expressed in cells but the cells were not loaded with 6SiR-DNP, a fluorescence signal due to 6SiR-DNP was not observed (FIG. 8B).
Using a β-tubulin protein as an observation object, a 5D4 fusion protein expression construct was transgenically introduced into a Hela cell. […] An attempt was also made to observe b-actin in the cell. When a fusion protein of β-actin and 5D4 was expressed in a HeLa cell and the cell was observed, a fibrous structure characteristic of β-actin was observed (FIG. 9B). In order to visualize F-actin internal to the cell, an expression construct in which a peptide sequence (Lifeact sequence) for specifically binding to F-actin was added to the N-terminus of 5D4 was transgenically introduced into a HeLa cell. A characteristic fibrous structure was observed that was similar to the structure observed when a fusion protein of β-actin and 5D4 was expressed in the cell (FIG. 9C).

[2] = tested on: ECFP-5D4 (Y96F) with endoplasmic reticulum localization signal in HeLa cells; experiment: Super-resolution imaging by single-molecule localization; format: cell-based; settings: 10 nM probe, 640 nm laser, relative to normal fluorescence microscope image
Description: An ECFP-5D4 (Y96F) expression plasmid (pECFP-5D4 (Y96F)-ER) to which an endoplasmic reticulum localization signal sequence was added was introduced to HeLa cells cultured on a 96-well plate, using Lipofectamine 2000. At 20 hours after plasmid introduction, the cells were treated with trypsin/EDTA and stripped, and then re-seeded on a cover glass coated with collagen/poly-L-lysine. At 20 hours after re-seeding, the cells were washed with HBS, loaded with 10 nM 6SiR-DNP, and subjected to super-resolution imaging. A specimen was excited using a 640 nm semiconductor laser, and fluorescence intermittency images of a single molecule were continuously acquired at an exposure of 16 milliseconds by a backside-illuminated cooled EM-CCD camera (iXon, Andor Technology). A centroid position of a bright point of single-molecule fluorescence in each image was determined, and a super-resolution image was reconstructed.

[3] = tested on: HeLa cells expressing ECFP-5D4; experiment: Long-term-stable fluorescence imaging based on tag/probe binding/dissociation equilibrium; settings: 10 nM probe in extracellular fluid, whole cell irradiated with intense excitation light
Description: HeLa cells expressing ECFP-5D4 were immersed for one hour at room temperature in HBS including 10 nM 6SiR-pCOONHMeoNP, and fluorescence imaging thereof was performed without modification of this state with the probe present at a concentration of 10 nM in the extracellular fluid. […] In super-resolution imaging and other fluorescence observation in which photobleaching has hitherto been a serious problem, the tag/probe method developed herein has the revolutionary characteristic of making it possible to obtain a semi-permanent fluorescence signal without limitation by photobleaching.

| SMILES | fluorescence quantum yield (5D4; bound to 5D4, in the presence of an excess of 5D4) | fluorescence intensity increased by a factor relative to absence of 5D4 (5D4; in the presence of 5D4) | absorption maximum (5D4; when 5D4 was present) [nm] | fluorescence maximum (5D4; when 5D4 was present) [nm] | fluorescent labeling at targeted intracellular sites ([1]; ECFP-5D4 with localization peptide for nucleus, cell membrane, endoplasmic reticulum, final concentration 0.1 μM) | fluorescence image of STIM1-5D4 fusion protein ([1]; HeLa cell stained with 6SiR-DNP) | fluorescence image of tubulin-5D4 fusion protein ([1]; HeLa cell, 6SiR-DNP present in the extracellular fluid) | 6SiR-DNP fluorescence signal ([1]; HeLa cells expressing 5D4 as fusion protein with ECFP) | fluorescence signal due to 6SiR-DNP ([1]; cells expressing only ECFP loaded with 6SiR-DNP) | super-resolution image of endoplasmic reticulum [2] | fluorescence signal after photobleaching [3] |
| --- | --- | --- | --- | --- | --- | --- | --- | --- | --- | --- | --- |
| CN(C)c1ccc2c(c1)[Si](C)(C)C1=CC(=[N+](C)C)C=CC1=C2c1cc(C(=O)NCCOCCOCCNc2ccc([N+](=O)[O-])cc2[N+](=O)[O-])ccc1C(=O)[O-] [Probe 6SiR-DNP, 2-(7-(dimethylamino)-3-(dimethylimino)-5,5-dimethyl-3,5-dihydrodibenzo[b,e]silin-10-yl)-4-((2-(2-(2-((2,4-dinitrophenyl)amino)ethoxy)ethoxy)ethyl)carbamoyl)benzoate] | 0.57 | 98 | 653 | 668 | fluorescent labeling at the targeted intracellular sites was accomplished for all the cells | a structure running along the endoplasmic reticulum and microtubules was observed | a fibrous structure characteristic of tubulin was observed | observed covering the entire cytoplasm | not observed | visualized with high spatial resolution |  |
| CNC(=O)c1ccc(NCCOCCOCCNC(=O)c2ccc(C(=O)[O-])c(C3=C4C=CC(=[N+](C)C)C=C4[Si](C)(C)c4cc(N(C)C)ccc43)c2)c([N+](=O)[O-])c1 [6SiR-pCOONHMeoNP, 2-(7-(dimethylamino)-3-(dimethylimino)-5,5-dimethyl-3,5-dihydrodibenzo[b,e]silin-10-yl)-4-((2-(2-(2-((4-(methylcarbamoyl)-2-nitrophenyl)amino)ethoxy)ethoxy)ethyl)carbamoyl)benzoate] |  |  |  |  |  |  |  |  |  |  | recovery of the fluorescence signal after photobleaching was observed |
